# Test results: ChEMBL document CHEMBL1139447, “Discovery of novel PTP1b inhibitors” (Bioorg Med Chem Lett, 2004)
# Assay: Compound was tested for inhibition of Protein tyrosine phosphatase (PTP1B)
IC50,Kd,SMILES
60 µM,25 µM,O=c1c(O)c(-c2ccccc2)c1=O
> 300 µM,100 µM,O=Cc1ccccn1 [2-PYRIDINECARBOXALDEHYDE]
> 300 µM,150 µM,O=CCCc1ccccc1 [DIHYDROCINNAMALDEHYDE]
